# Assay results from patent publication US20090143279A1 (priority 2007, published 2009).
# Structures can show the parent of a compound that is named as a salt. Where two headings read alike, the source gives them in different places. Where a SMILES comes first, the peptide text is derived from it. The star is where a group is joined. Tfa = O=C(C(F)(F)F)*
# Tests used:
# cytochrome c = assay type: cell-based, mouse
# [1] = test system: cellular dehydrogenase activity
# OXPHOS gene expression = assay type: cell-based, mouse
# reactive oxygen species = assay type: cell-based, mouse
# nuOXPHOS transcripts = assay type: cell-based, mouse; conditions: for nucOXPHOS Z: Table 7, C2C12 myotubes, 48 h, composite Z-score
# [2] = test system: mitochondrial membrane potential; assay type: cell-based, mouse
# mtOXPHOS transcripts = assay type: cell-based, mouse; conditions: for mito-OXPHOS Z: Table 7, C2C12 myotubes, 48 h, composite Z-score
# [3] = composite Z-score vs DMSO wells, Conc 20 μM
# [4] = composite Z-score vs mock-treated (DMSO) wells, concentration of each compound in μM
# [5] = composite Z-score vs mock-treated (DMSO) wells, Conc 20 μM
# [6] = composite Z-score vs DMSO, Conc 20 μM
# [7] = normalized composite Z-score vs mock-treated (DMSO) wells, Conc 20 μM
smiles,measurement,setting,value
CC(=O)N[C@H]1[C@H]([C@@H](O)[C@@H](O)CO)O[C@@](O)(C(=O)O)C[C@@H]1O [N-acetylneuramic acid],Viability,C2C12 myotubes; [3],1.009
same,cyt c,cytochrome c; [3],−0.254
same,MTT,[1]; [3],−0.118
same,GE-HTS,OXPHOS gene expression; [3],1.061
same,ROS,reactive oxygen species; [3],0.063
same,nucOX,nuOXPHOS transcripts; [3],1.111
same,ΔΨm,[2]; [3],0.053
same,mitoOX,mtOXPHOS transcripts; [3],0.813
CSCC[C@H](NC=O)C(=O)N[C@@H](CC(C)C)C(=O)N[C@@H](Cc1ccccc1)C(=O)O [N-formylmethionyl-leucylphenylalanine],Viability,C2C12 myotubes; [3],0.354
same,cyt c,cytochrome c; [3],0.374
same,MTT,[1]; [3],−1.240
same,GE-HTS,OXPHOS gene expression; [3],−0.370
same,ROS,reactive oxygen species; [3],1.017
same,nucOX,nuOXPHOS transcripts; [3],−0.517
same,ΔΨm,[2]; [3],0.476
same,mitoOX,mtOXPHOS transcripts; [3],−0.051
CC[C@H](C)[C@H](NC)C(=O)O [N-methylisoleucine],Viability,C2C12 myotubes,1.026
same,cyt c,cytochrome c,−0.451
same,MTT,[1],0.372
same,GE-HTS,OXPHOS gene expression,0.772
same,ROS,reactive oxygen species,0.300
same,nucOX,nuOXPHOS transcripts,0.676
same,ΔΨm,[2],−0.210
same,mitoOX,mtOXPHOS transcripts,0.850
"COc1cc2c(cc1OC)-c1cc3ccc(OC)c(OC)c3c[n+]1CC2 [Palmatine, reference compound]",Viability,C2C12 myotubes; [4],−1.028
same,cyt c,cytochrome c; [4],−0.084
same,MTT,[1]; [4],−1.222
same,GE-HTS,OXPHOS gene expression; [4],1.822
same,ROS,reactive oxygen species; [4],0.511
same,nucOXPHOS Z,nuOXPHOS transcripts,1.64
same,nucOX,nuOXPHOS transcripts; [4],1.636
same,ΔΨm,[2]; [4],−0.823
same,mito-OXPHOS Z,mtOXPHOS transcripts,1.83
same,mitoOX,mtOXPHOS transcripts; [4],1.833
"C=C1[C@@H]([C@@]2(C)[C@@H](OC(C)=O)CC(=O)O[C@](C)(COC(C)=O)[C@@H]2C(=O)OC)[C@@H](OC=O)[C@H](OC(=O)[C@H](O)[C@H](C)CC)[C@@]2(C)[C@H](c3ccoc3)CC(=O)[C@]12O [Prieurianin, reference compound]",Viability,C2C12 myotubes; [5],−0.894
same,cyt c,cytochrome c; [5],−1.620
same,MTT,[1]; [5],−1.263
same,GE-HTS,OXPHOS gene expression; [5],2.020
same,ROS,reactive oxygen species; [5],−1.358
same,nucOXPHOS Z,nuOXPHOS transcripts,1.90
same,nucOX,nuOXPHOS transcripts; [5],1.896
same,ΔΨm,[2]; [5],1.108
same,mito-OXPHOS Z,mtOXPHOS transcripts,1.93
same,mitoOX,mtOXPHOS transcripts; [5],1.931
"COc1ccc(C[C@H](N)C(=O)N[C@H]2[C@@H](O)[C@H](n3cnc4c(N(C)C)ncnc43)O[C@@H]2CO)cc1 [Puromycin, reference compound]",Viability,C2C12 myotubes; [6],−5.718
same,cyt c,cytochrome c; [6],−5.573
same,MTT,[1]; [6],−5.624
same,GE-HTS,OXPHOS gene expression; [6],−3.348
same,ROS,reactive oxygen species; [6],−2.665
same,nucOXPHOS Z,nuOXPHOS transcripts,−2.80
same,nucOX,nuOXPHOS transcripts; [6],−4.017
same,ΔΨm,[2]; [6],−3.989
same,mito-OXPHOS Z,mtOXPHOS transcripts,1.24
same,mitoOX,mtOXPHOS transcripts; [6],−1.331
"N[C@@H](CCC(=O)N[C@@H](CSC(CC(=O)O)C(=O)O)C(=O)NCC(=O)O)C(=O)O (stereo partly drawn) [S-(1,2-dicarboxyethyl)glutathione]",Viability,C2C12 myotubes; [6],−0.049
same,cyt c,cytochrome c; [6],−0.411
same,MTT,[1]; [6],−0.635
same,GE-HTS,OXPHOS gene expression; [6],−0.364
same,ROS,reactive oxygen species; [6],0.258
same,nucOX,nuOXPHOS transcripts; [6],−0.400
same,ΔΨm,[2]; [6],0.038
same,mitoOX,mtOXPHOS transcripts; [6],−0.219
CC(=O)O.CSC(=N)NCCC[C@H](N)C(=O)O [S-methyl-L-thiocitrulline acetate],Viability,C2C12 myotubes; [4],0.613
same,cyt c,cytochrome c; [4],0.533
same,MTT,[1]; [4],−0.262
same,GE-HTS,OXPHOS gene expression; [4],0.291
same,ROS,reactive oxygen species; [4],0.052
same,nucOX,nuOXPHOS transcripts; [4],0.325
same,ΔΨm,[2]; [4],−0.542
same,mitoOX,mtOXPHOS transcripts; [4],0.173
CC(C)[C@H](NC(=O)[C@H](Cc1ccc(O)cc1)NC(=O)[C@@H](NC(=O)C(F)(F)F)C(C)C)C(=O)O [TFA-Val-Tyr-Val-OH] (Tfa-Val-Tyr-Val-OH),Viability,C2C12 myotubes; [4],−0.143
same,cyt c,cytochrome c; [4],−0.785
same,MTT,[1]; [4],−1.019
same,GE-HTS,OXPHOS gene expression; [4],0.294
same,ROS,reactive oxygen species; [4],0.471
same,nucOX,nuOXPHOS transcripts; [4],0.415
same,ΔΨm,[2]; [4],−0.510
same,mitoOX,mtOXPHOS transcripts; [4],−0.008
C=C/C(C)=C\CC1C(C)(O)CCC2C(C)(C)CCCC21C (stereo not drawn) [abienol],Viability,C2C12 myotubes; [7],−0.199
same,cyt c,cytochrome c; [7],0.211
same,MTT,[1]; [7],0.338
same,GE-HTS,OXPHOS gene expression; [7],0.498
same,ROS,reactive oxygen species; [7],2.467
same,nucOX,nuOXPHOS transcripts; [7],0.091
same,ΔΨm,[2]; [7],0.334
same,mitoOX,mtOXPHOS transcripts; [7],1.214
CN[C@@H](Cc1c[nH]c2ccccc12)C(=O)O [abrine],Viability (composite Z-score),C2C12 myotubes,0.206
same,cyt c (composite Z-score),cytochrome c,−0.094
same,MTT (composite Z-score),[1],−1.203
same,GE-HTS (composite Z-score),OXPHOS gene expression,0.459
same,ROS (composite Z-score),reactive oxygen species,1.698
same,nucOX (composite Z-score),nuOXPHOS transcripts,0.430
same,ΔΨm (composite Z-score),[2],−0.332
same,mitoOX (composite Z-score),mtOXPHOS transcripts,0.383
CC1=CC(=O)CC(C)(C)[C@@]1(O)/C=C/C(C)=C\C(=O)O [abscisic acid],Viability,C2C12 myotubes; [7],0.309
same,cyt c,cytochrome c; [7],0.179
same,MTT,[1]; [7],−1.053
same,GE-HTS,OXPHOS gene expression; [7],0.469
same,ROS,reactive oxygen species; [7],−0.476
same,nucOX,nuOXPHOS transcripts; [7],0.509
same,ΔΨm,[2]; [7],−0.565
same,mitoOX,mtOXPHOS transcripts; [7],0.299
